Data: ChEMBL document CHEMBL5154648, “Antitumor activity of novel POLA1-HDAC11 dual inhibitors” (Eur J Med Chem, 2022)
The source made the active and inactive calls. The rule behind the calls is not given here.

Key:
NCI-H460 [1] = test: Antiproliferative activity against human NCI-H460 cells incubated for 24 hrs followed by incubating in drug-free medium for 48 hrs and measured by SRB assay; assay type: functional, cell-based
[2] = Antiproliferative activity against human H460-R9A cells incubated for 24 hrs followed by incubating in drug-free medium for 48 hrs and measured by SRB assay; assay type: functional, cell-based
[3] = Resistance index, ratio of IC50 for human NCI-H460 cells to IC50 for H460-R9A cells; assay type: functional
A2780 = test: Antiproliferative activity against human A2780 cells incubated for 24 hrs followed by incubating in drug-free medium for 48 hrs and measured by SRB assay; assay type: functional, cell-based
[4] = Antiproliferative activity against multi-drug resistant human A2780-DX cells incubated for 24 hrs followed by incubating in drug-free medium for 48 hrs and measured by SRB assay; assay type: functional, cell-based
[5] = Resistance index, ratio of IC50 for human A2780 cells to IC50 for A2780-DX cells; assay type: functional
H460-R9A = test: Antiproliferative activity against human H460-R9A cells at 3.75 to 60 uM after 72 hrs by MTT assay; assay type: functional, cell-based; settings: dose 3.75-60 µM
L-428 = test: Antiproliferative activity against human L-428 cells incubated for 24 hrs followed by incubating in drug-free medium for 48 hrs and measured by SRB assay; assay type: functional, cell-based
[6] = biological target: T1, DNA polymerase alpha catalytic subunit (Homo sapiens) (UniProt P09884); test: Inhibition of POLA1 in human NCI-H460 cells at 7.4 uM assessed as upregulation of p21 expression and measured by Western blot analysis; assay type: cell-based
T1 sequence (whole entry): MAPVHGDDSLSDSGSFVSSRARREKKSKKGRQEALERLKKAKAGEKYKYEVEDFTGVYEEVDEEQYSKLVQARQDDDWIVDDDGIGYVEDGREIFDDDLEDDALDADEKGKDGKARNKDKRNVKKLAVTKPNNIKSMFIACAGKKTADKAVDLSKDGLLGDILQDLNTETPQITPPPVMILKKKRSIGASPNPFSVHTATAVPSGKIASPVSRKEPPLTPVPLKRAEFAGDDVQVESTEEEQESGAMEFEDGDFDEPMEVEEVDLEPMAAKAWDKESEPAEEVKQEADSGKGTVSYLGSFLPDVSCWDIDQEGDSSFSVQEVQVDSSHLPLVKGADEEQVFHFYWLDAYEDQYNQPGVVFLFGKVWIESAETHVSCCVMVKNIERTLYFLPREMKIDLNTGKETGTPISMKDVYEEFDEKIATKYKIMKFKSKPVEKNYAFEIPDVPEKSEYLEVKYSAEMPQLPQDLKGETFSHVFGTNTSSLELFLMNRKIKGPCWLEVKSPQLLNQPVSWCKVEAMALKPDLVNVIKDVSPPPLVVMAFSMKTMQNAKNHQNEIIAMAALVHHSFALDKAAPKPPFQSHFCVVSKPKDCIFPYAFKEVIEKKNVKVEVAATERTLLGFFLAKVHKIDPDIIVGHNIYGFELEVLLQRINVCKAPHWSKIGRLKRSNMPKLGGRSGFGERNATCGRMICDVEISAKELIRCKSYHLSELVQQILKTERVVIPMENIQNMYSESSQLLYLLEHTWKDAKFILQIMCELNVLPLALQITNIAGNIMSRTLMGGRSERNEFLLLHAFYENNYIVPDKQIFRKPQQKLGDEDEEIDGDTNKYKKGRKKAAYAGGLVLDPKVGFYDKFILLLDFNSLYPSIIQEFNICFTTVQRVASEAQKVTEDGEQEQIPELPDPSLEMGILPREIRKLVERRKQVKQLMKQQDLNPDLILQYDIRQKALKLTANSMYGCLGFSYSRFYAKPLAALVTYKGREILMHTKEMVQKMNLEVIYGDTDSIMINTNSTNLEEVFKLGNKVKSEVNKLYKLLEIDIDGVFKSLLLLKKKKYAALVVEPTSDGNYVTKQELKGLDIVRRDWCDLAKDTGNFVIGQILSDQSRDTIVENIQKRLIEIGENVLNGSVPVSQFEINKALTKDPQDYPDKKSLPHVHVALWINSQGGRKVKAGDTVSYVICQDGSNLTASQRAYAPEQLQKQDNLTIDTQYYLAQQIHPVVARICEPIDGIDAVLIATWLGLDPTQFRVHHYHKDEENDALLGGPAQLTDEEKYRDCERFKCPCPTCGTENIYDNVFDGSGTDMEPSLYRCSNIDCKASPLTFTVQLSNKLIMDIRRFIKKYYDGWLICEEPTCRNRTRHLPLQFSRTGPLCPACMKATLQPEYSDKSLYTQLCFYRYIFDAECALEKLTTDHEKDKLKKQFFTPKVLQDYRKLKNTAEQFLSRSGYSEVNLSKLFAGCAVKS

NCI-H460 [7] = test: Induction of DNA damage in human NCI-H460 cells at 7.4 uM assessed as increase in p-H2AX levels and measured by Western blot analysis; assay type: functional, cell-based
NCI-H460 [8] = test: Antiproliferative activity against human NCI-H460 cells at 7.4 uM assessed as reduction in p-ERK1/2 level and measured by Western blot analysis; assay type: functional, cell-based
NCI-H460 [9] = test: Antiproliferative activity against human NCI-H460 cells at 7.4 uM assessed as reduction in PIN1 level and measured by Western blot analysis; assay type: functional, cell-based
NCI-H460 [10] = test: Induction of cell cycle arrest in human NCI-H460 cells assessed as accumulation of cells at sub-G1 phase at 4.2 uM after 72 hrs by flow cytometry (reference value: 1.1%); assay type: functional
NCI-H460 [11] = test: Induction of cell cycle arrest in human NCI-H460 cells assessed as accumulation of cells at G0/1 phase at 4.2 uM after 72 hrs by flow cytometry (reference value: 46.8%); assay type: functional
NCI-H460 [12] = test: Induction of cell cycle arrest in human NCI-H460 cells assessed as accumulation of cells at S phase at 4.2 uM after 72 hrs by flow cytometry (reference value: 32.1%); assay type: functional
NCI-H460 [13] = test: Induction of cell cycle arrest in human NCI-H460 cells assessed as accumulation of cells at G2/M phase at 4.2 uM after 72 hrs by flow cytometry (reference value: 21.1%); assay type: functional
[14] = Induction of cell cycle arrest in human H460-R9A cells assessed as accumulation of cells at sub-G1 phase at 1.9 uM after 72 hrs by flow cytometry (reference value: 1.5%); assay type: functional
[15] = Induction of cell cycle arrest in human H460-R9A cells assessed as accumulation of cells at G0/1 phase at 1.9 uM after 72 hrs by flow cytometry (reference value: 50.1%); assay type: functional
[16] = Induction of cell cycle arrest in human H460-R9A cells assessed as accumulation of cells at S phase at 1.9 uM after 72 hrs by flow cytometry (reference value: 34.5%); assay type: functional
[17] = Induction of cell cycle arrest in human H460-R9A cells assessed as accumulation of cells at G2/M phase at 1.9 uM after 72 hrs by flow cytometry (reference value: 15.4%); assay type: functional

Row | Structure (SMILES) | IC50 (NCI-H460 [1]) [µM] | IC50 (A2780) [µM] | IC50 [2] [µM] | Ratio IC50 [3] | IC50 [4] [µM] | Ratio IC50 [5] | other results
1 | O=C(O)C=Cc1ccc(-c2ccc(OCCC(=O)O)c(C34CC5CC(CC(C5)C3)C4)c2)cc1 | 10 | 10 | > 10 |  | 23.8 | 2.38 | 
2 | O=C(O)C=Cc1ccc(-c2ccc(OCC(=O)O)c(C34CC5CC(CC(C5)C3)C4)c2)cc1 | > 10 |  | > 10 |  |  |  | 
3 | CCCCCCCCCCCCCCCCNNC(=O)c1cccs1 |  |  |  |  |  |  | Activity (H460-R9A): Active
4 | O=C(CCCCCCC(=O)Nc1ccccc1)NO [VORINOSTAT] |  |  |  |  | 33 |  | IC50 (L-428): 2.3 µM; inhibition [6]: Active; Activity (NCI-H460 [7]): Active; Activity (NCI-H460 [8]): Active; Activity (NCI-H460 [9]): Active; Activity (NCI-H460 [10]): 1.8%; Activity (NCI-H460 [11]): 65.2%; Activity (NCI-H460 [12]): 11.7%; Activity (NCI-H460 [13]): 23.1%; Activity [14]: 2.1%; Activity [15]: 62.2%; Activity [16]: 14.7%; Activity [17]: 21%

Now from value to compound, other results behind:

Row | IC50 (NCI-H460 [1]) [µM] | IC50 (A2780) [µM] | Structure (SMILES) | IC50 [2] [µM] | Ratio IC50 [3] | IC50 [4] [µM] | Ratio IC50 [5] | other results
5 | 1.7 | 4.2 | O=C(O)C=Cc1ccc(-c2ccc(OCCCC(=O)NO)c(C34CC5CC(CC(C5)C3)C4)c2)cc1 | 8.3 | 4.9 | 3.9 | 0.9 | 
6 | 1.3 |  | CC(C)(Oc1ccc(-c2ccc(C=CC(=O)O)cc2)cc1C12CC3CC(CC(C3)C1)C2)C(=O)NO | 7.3 | 5.6 |  |  | 
7 | 1.9 | 3.6 | O=C(O)C=Cc1ccc(-c2ccc(OCCCCC(=O)NO)c(C34CC5CC(CC(C5)C3)C4)c2)cc1 | 8.6 | 4.5 | 6.4 | 1.7 | 
8 | 5.5 |  | O=C(O)C=Cc1ccc(-c2ccc(OCCCCCCCC(=O)NO)c(C34CC5CC(CC(C5)C3)C4)c2)cc1 | 9.6 | 1.7 |  |  | 
9 | 8.3 |  | O=C(O)C=Cc1ccc(-c2ccc(OCCC(=O)NO)c(C34CC5CC(CC(C5)C3)C4)c2)cc1 | 10.6 | 1.3 |  |  | 
